# How the values were obtained:
# Experiment in all cases: relative viability (nuclei count vs DMSO), 5 days (fraction); higher = more cells survive
# Seliciclib + Lapatinib = compound: CC[C@H](CO)Nc1nc(NCc2ccccc2)c2ncn(C(C)C)c2n1 [Seliciclib] + CS(=O)(=O)CCNCc1ccc(-c2ccc3ncnc(Nc4ccc(OCc5cccc(F)c5)c(Cl)c4)c3c2)o1 [Lapatinib] (partner 2 µM)
# Outline: (§1)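 Relative viability divides the nuclei count in treated wells by that in vehicle wells. Lung cancer cell lines were seeded in 1536-well plates, dosed by pin tool the next day, and fixed and stained after 5 days in one step with final 0.05% Triton X-100, 1% formaldehyde and 1 ug/ml Hoechst. Dosing was a single drug or a fixed anchor-drug dose plus five library-drug doses (not always all listed) in √10 steps, and values are medians of duplicate plates imaged at 4×.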
# Seliciclib + Linsitinib = compound: CC[C@H](CO)Nc1nc(NCc2ccccc2)c2ncn(C(C)C)c2n1 [Seliciclib] + C[C@]1(O)C[C@@H](c2nc(-c3ccc4ccc(-c5ccccc5)nc4c3)c3c(N)nccn32)C1 [Linsitinib] (partner 1 µM)
# Outline: as §1
# Seliciclib + OSI-027 = compound: CC[C@H](CO)Nc1nc(NCc2ccccc2)c2ncn(C(C)C)c2n1 [Seliciclib] + COc1cccc2cc(-c3nc([C@H]4CC[C@H](C(=O)O)CC4)n4ncnc(N)c34)[nH]c12 [OSI-027] (partner 0.5 µM)
# Outline: as §1
# Seliciclib + Trametinib = compound: CC[C@H](CO)Nc1nc(NCc2ccccc2)c2ncn(C(C)C)c2n1 [Seliciclib] + CC(=O)Nc1cccc(-n2c(=O)n(C3CC3)c(=O)c3c(Nc4ccc(I)cc4F)n(C)c(=O)c(C)c32)c1 [Trametinib] (partner 0.02 µM)
# Outline: as §1
Cell Line,relative viability (Seliciclib + Lapatinib; first compound 0.08 µM),relative viability (Seliciclib + Lapatinib; first compound 0.253 µM),relative viability (Seliciclib + Lapatinib; first compound 0.8 µM),relative viability (Seliciclib + Lapatinib; first compound 2.53 µM),relative viability (Seliciclib + Lapatinib; first compound 8 µM),relative viability (Seliciclib + Linsitinib; first compound 0.08 µM),relative viability (Seliciclib + Linsitinib; first compound 0.253 µM),relative viability (Seliciclib + Linsitinib; first compound 0.8 µM),relative viability (Seliciclib + Linsitinib; first compound 2.53 µM),relative viability (Seliciclib + Linsitinib; first compound 8 µM),relative viability (Seliciclib + OSI-027; first compound 0.08 µM),relative viability (Seliciclib + OSI-027; first compound 0.253 µM),relative viability (Seliciclib + OSI-027; first compound 0.8 µM),relative viability (Seliciclib + OSI-027; first compound 2.53 µM),relative viability (Seliciclib + OSI-027; first compound 8 µM),relative viability (Seliciclib + Trametinib; first compound 0.08 µM),relative viability (Seliciclib + Trametinib; first compound 0.253 µM),relative viability (Seliciclib + Trametinib; first compound 0.8 µM),relative viability (Seliciclib + Trametinib; first compound 2.53 µM),relative viability (Seliciclib + Trametinib; first compound 8 µM)
201T,1.08,1.07,1,0.952,0.843,1.04,1.07,0.994,1.05,0.982,0.815,0.708,0.857,0.467,0.688,0.701,0.716,0.694,0.727,0.632
A549,1,0.913,0.991,0.981,0.623,0.599,0.473,0.434,0.651,0.446,,,,,,,,,,
A-427,1.03,1.08,1.13,1.02,1.01,1.08,1.11,1.2,1.15,1.13,0.419,0.615,0.442,0.331,0.401,0.767,0.816,0.797,0.678,0.586
ABC-1,1.18,1.06,1.19,1.17,0.894,0.919,0.806,0.918,0.957,1.04,0.611,0.378,0.431,0.32,0.387,,,,,
BEN,0.826,0.525,0.772,0.677,0.629,1.16,,0.852,1.07,0.786,0.295,0.287,0.343,0.309,0.276,0.976,0.809,1.1,0.991,1.04
CAL-12T,0.619,0.793,0.551,0.67,0.276,0.87,0.977,0.744,0.742,0.673,0.746,0.504,0.763,0.321,0.357,0.367,0.337,0.324,0.257,0.2
COR-L23,0.921,1.14,0.929,1.12,0.87,0.873,0.84,0.922,1.11,0.684,0.808,0.604,0.7,0.671,0.627,0.577,0.464,0.577,0.566,0.471
COR-L 105,0.367,0.347,0.416,0.311,0.279,1.04,0.748,0.943,0.91,0.926,0.722,0.622,0.754,0.56,0.646,0.469,0.36,0.427,0.451,0.401
Calu-6,0.993,1.13,1.08,1.08,0.934,1.05,0.996,0.95,1.01,0.899,,,,,,,,,,
ChaGo-K-1,,,,,,,,,,,0.663,0.367,0.587,0.356,0.451,0.838,0.87,0.894,0.873,0.745
EBC-1,0.25,0.225,0.251,0.23,0.227,0.911,0.836,0.942,0.88,0.794,,,,,,,,,,
EKVX,0.197,0.473,0.18,0.166,0.216,0.925,1.1,0.94,1.14,0.711,,0.781,0.661,0.565,0.537,0.373,0.252,0.286,0.31,0.328
EMC-BAC-2,0.891,0.847,0.953,0.666,0.781,0.835,0.805,0.775,0.894,0.754,0.401,0.317,0.43,0.253,0.347,0.883,0.934,0.809,0.721,0.778
EPLC-272H,0.814,0.861,0.805,0.913,0.847,1.32,1.09,1.04,1.35,0.927,0.328,0.271,0.265,0.225,0.265,0.298,0.269,0.309,0.258,0.244
H3255,0.265,0.273,0.256,0.174,0.242,0.872,0.926,1.02,1.16,0.891,0.596,0.642,0.626,0.532,0.579,0.629,0.52,0.652,0.631,0.494
HARA,0.798,0.614,0.781,0.374,0.701,0.978,1.02,0.943,1.1,1.01,0.496,0.22,0.378,0.377,0.325,0.675,0.719,0.565,0.828,0.44
HCC-15,0.865,0.963,0.758,0.792,0.652,0.931,0.986,0.861,0.941,0.667,0.691,0.757,0.584,0.427,0.442,0.393,0.343,0.369,0.37,0.357
HCC-44,0.972,1.08,0.981,0.933,0.925,0.64,0.626,0.633,0.697,0.649,0.488,0.451,0.508,0.302,0.508,1.09,1.17,0.999,0.933,1.06

# — the supplement of paper PMC10307832
